These results are taken from ChEMBL document CHEMBL1201862, “PubChem BioAssay data set” (2004).

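Grown in 96-well plates, cells were treated for 48 hours with each compound at five concentrations. Insufficient inhibition: endpoint recorded as highest concentration tested. GI50: concentration for 50% inhibition of growth.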 The source made the active and inactive calls. Rule as the data show it: active = GI50 up to about 1.1 µM and inactive = higher.

Test in all cases: NCI tumour cell line growth inhibition, 48 h
The subject of test [1] is ACHN.
Test [2] concerns SF-268.
Test [3] deals with IGROV-1.
Test [4] relates to A549.
The subject of test [5] is HCC 2998.
The subject of test [6] is Hs-578T.
In test [7] the test system is SK-MEL-2.
Test [8] relates to RXF 393.
The subject of test [9] is OVCAR-3.
The test system of test [10] is CAKI-1.
Test [11] deals with LOX IMVI.
The subject of test [12] is HCT-116.
For test [13], the system named is OVCAR-8.
The subject of test [14] is NCI-H522.
Test [15] deals with 786-0.
Test [16] deals with OVCAR-4.
The test system of test [17] is HL-60.
Test [18] has as its system U-251.
In test [19] the test system is HCT-15.
In test [20] the test system is MCF7.

`O=P(c1ccccc1)(c1ccccc1)C(NCc1ccccc1)c1ccc(F)cc1` (stereo not given): the GI50 in test [1] is 13.8 µM (inactive); in test [2], 19.7 µM (inactive); in test [3], 15.5 µM (inactive); in test [4] it was 15 µM (inactive); in test [5], 16.1 µM (inactive); in test [6], 28.4 µM (inactive). Further, the GI50 in test [7] was 15 µM (inactive); in test [8], 13.4 µM (inactive); in [9], 14.2 µM (inactive); in test [10], 17 µM (inactive); in [11] it was 14.2 µM (inactive); in [12] it was 12.8 µM (inactive). For the same molecule, the GI50 in test [13] is 19 µM (inactive); in [14] it was 11.5 µM (inactive); in test [15], 18.5 µM (inactive); in test [16], 20.3 µM (inactive); in test [17], 17.5 µM (inactive); in test [18] it was 15.6 µM (inactive). In test [19], this molecule showed a GI50 of 13.2 µM.
Regarding `CCOC(=O)C1=COC(C)(C)CC1=O`, the GI50 in test [1], in test [2], in [4], in test [6], in test [7] and in test [8] was > 100 µM (inactive) in each case. In addition, the GI50 in [9], in test [10], in [12], in test [13], in test [14] and in test [15] was > 100 µM (inactive) each time. The GI50 in test [20] is > 100 µM (inactive); in test [16] it was > 100 µM (inactive); in test [18], > 100 µM (inactive); in test [19], over 100 µM.
Turning to `Oc1ccc2ccccc2c1OCc1nnc(CCCCCCCCc2nnc(COc3c(O)ccc4ccccc34)o2)o1`, the GI50 is > 100 µM (inactive) in test [1]; 99.3 µM (inactive) in test [2]; > 100 µM (inactive) in test [3]; > 100 µM (inactive) in [4]; > 100 µM (inactive) in test [5]; > 100 µM (inactive) in test [7]. Further, the GI50 in test [8] is > 100 µM (inactive); in test [10], 67 µM (inactive); in [12] it was 20.7 µM (inactive); in test [14], > 100 µM (inactive); in [15], 83 µM (inactive); in test [20], 59.2 µM (inactive). Also, the GI50 in test [16] was > 100 µM (inactive); in test [18], 35.7 µM (inactive); in test [19] it was over 100 µM.
Take `CCN1CCCc2cc3c(C(F)(F)F)cc(=O)oc3cc21`: the GI50 in test [1] was 87.9 µM (inactive); in [2], > 100 µM (inactive); in test [3], > 100 µM (inactive); in test [4], > 100 µM (inactive); in test [5] it was > 100 µM (inactive); in test [7], > 100 µM (inactive). Also, the GI50 is 20.6 µM (inactive) in test [8]; 33 µM (inactive) in test [9]; 50.8 µM (inactive) in test [10]; 82.2 µM (inactive) in test [11]; 91.8 µM (inactive) in test [12]; 91.6 µM (inactive) in test [13]. For the same molecule, the GI50 in [14] is 55.5 µM (inactive); in test [15], 39.4 µM (inactive); in test [20], 56.2 µM (inactive); in test [16], > 100 µM (inactive); in [17], 0.0258 µM (active); in test [18], > 100 µM (inactive). Besides, the GI50 in test [19] was over 100 µM.
As to `CCCC(=O)Oc1c2ccsc2c(OC(=O)CCC)c2ccsc12`, the GI50 was 2.23 µM (inactive) in test [1]; 3.13 µM (inactive) in test [2]; 4.18 µM (inactive) in test [3]; 3.94 µM (inactive) in test [4]; 4.14 µM (inactive) in test [5]; 1.09 µM (active) in [7]. Also, the GI50 in [8] was 3.05 µM (inactive); in test [9], 1.07 µM (active); in test [10] it was 5.55 µM (inactive); in test [11], 0.594 µM (active); in test [12] it was 1.35 µM (inactive); in test [13], 0.407 µM (active). Also, the GI50 in test [14] was 2.26 µM (inactive); in [15], 4.55 µM (inactive); in [20], 2.23 µM (inactive); in test [16] it was 2.94 µM (inactive); in test [17] it was 1.08 µM (active); in [18], 1.36 µM (inactive). Also, the GI50 in test [19] is 1.21 µM.
As for `CC(=O)Nc1ccc(C2C(C(=O)Nc3ccccc3C)=C(C)NC(C)=C2C(=O)Nc2ccccc2C)cc1`, the GI50 in [1], in test [2], in test [3], in [4], in [5] and in [7] was > 100 µM (inactive) each time. The GI50 was > 100 µM (inactive) in test [8]; > 100 µM (inactive) in test [9]; > 100 µM (inactive) in test [10]; > 100 µM (inactive) in [11]; > 100 µM (inactive) in [12]; > 92 µM (inactive) in [13]. Further, the GI50 was > 100 µM (inactive) in test [14]; > 100 µM (inactive) in test [15]; > 100 µM (inactive) in [16]; 39.5 µM (inactive) in test [17]; > 100 µM (inactive) in test [18]; over 100 µM in [19].
As for `NC(=O)C(=O)N/N=C(\CC1(O)C(=O)Nc2ccccc21)c1ccc2ccccc2c1` (stereo not given), the GI50 in test [1] was 32.9 µM (inactive); in test [2] it was 40.9 µM (inactive); in test [3], 40.5 µM (inactive); in [4], 20.7 µM (inactive); in test [5], 41.5 µM (inactive); in test [7], 22.1 µM (inactive). Also, the GI50 is 24.8 µM (inactive) in test [8]; 25.8 µM (inactive) in [9]; 35.2 µM (inactive) in test [10]; 30.3 µM (inactive) in test [11]; 9.48 µM (inactive) in [12]; 56 µM (inactive) in [13]. Moreover, the GI50 is 18.7 µM (inactive) in [14]; 36.5 µM (inactive) in [15]; 37.1 µM (inactive) in test [16]; 16.6 µM (inactive) in test [17]; 25.9 µM (inactive) in test [18]; 24.5 µM in test [19].
As to `CC(=O)OC12C=CC(=O)N1c1ccccc1C(=O)O2` (stereo not given), the GI50 in test [1], in [2], in test [3], in [4], in test [5] and in test [7] was > 100 µM (inactive) throughout. For the same molecule, the GI50 in [8], in [9], in test [10], in test [11], in test [12] and in [13] was > 100 µM (inactive) each time. Further, the GI50 in test [14] was > 100 µM (inactive); in test [15], > 100 µM (inactive); in test [16], > 100 µM (inactive); in test [17], > 100 µM (inactive); in [18], > 100 µM (inactive); in [19] it was over 100 µM.
Turning to `CCC1(CN(C)C)CC/C(=C\c2ccc3c(c2)OCO3)C1=O` (stereo not given), the GI50 in test [1], in test [2], in test [3], in test [4], in [5] and in test [7] was > 100 µM (inactive) throughout. Moreover, the GI50 in [8] was > 100 µM (inactive); in test [9] it was > 100 µM (inactive); in test [10] it was > 100 µM (inactive); in test [11], > 100 µM (inactive); in test [12] it was > 100 µM (inactive); in test [13], 91.6 µM (inactive). The GI50 was 49.9 µM (inactive) in test [14]; > 100 µM (inactive) in [15]; > 100 µM (inactive) in test [16]; 11.4 µM (inactive) in test [17]; > 100 µM (inactive) in test [18]; over 100 µM in test [19].
With `CC(=O)C(=CNc1c(C)n(C)n(-c2ccccc2)c1=O)C(C)=O`, the GI50 in [1], in [3], in [4], in test [5], in test [7] and in test [8] was > 100 µM (inactive) in each case. In addition, the GI50 in [9], in [10], in test [11], in [12], in [13] and in test [14] was > 100 µM (inactive) throughout. The GI50 in test [15] was > 100 µM (inactive); in [20] it was > 100 µM (inactive); in test [16] it was > 100 µM (inactive); in test [17], > 100 µM (inactive); in [18] it was > 100 µM (inactive); in [19] it was over 100 µM.
As for `Nc1ccc(-c2nn3c(COc4ccc(Cl)cc4)nnc3s2)cc1`, the GI50 in [1] was > 100 µM (inactive); in [3], > 100 µM (inactive); in test [4], > 100 µM (inactive); in test [5], > 100 µM (inactive); in [6], 25.3 µM (inactive); in test [7], > 100 µM (inactive). Moreover, the GI50 in test [8] was 49.3 µM (inactive); in test [9], > 100 µM (inactive); in test [10], 54.2 µM (inactive); in test [11] it was > 100 µM (inactive); in test [13], > 100 µM (inactive); in test [14], 65 µM (inactive). In addition, the GI50 in test [15] was > 100 µM (inactive); in test [16] it was > 100 µM (inactive); in test [17], > 100 µM (inactive); in test [18] it was > 100 µM (inactive); in test [19] it was over 100 µM.
